# Literature values in patent publication US10113000B2, “Combination therapies for B-cell lymphomas comprising administration of anti-CD20 antibody” (BIOGEN INC., priority 1998, dated 2018).
# B1: IL-4: cytokine (protein, UniProt P05112 25-153, looked up)
# Interleukin-4: HKCDITLQEIIKTLNSLTEQKTLCTELTVTDIFAASKNTTEKETFCRAATVLRQFYSHHEKDTRCLGATAQQFHRHKQLIRFLKRLDRNLWGLAGLNSCPVKEANQSTLENFLERLKTIMREKYSKCSS
# Assays:
# [1] = tested on: mononuclear cells from CLL patients; settings: incubated for 24 hours
# [2] = tested on: multiple myeloma (MM) patient plasma cells
Molecule,CD20 expression by flow cytometry [1],"binding of cells to Rituximab ([2]; MM plasma cells, patient B-cells, normal donor B-cells)",concentration at which plateau of CD20 induction occurred ([2]; at 48 hours) [U/ml],"concentration at which CD20 upregulation is seen ([2]; plasma cells, dose dependent) [U/ml]"
GM-CSF: cytokine,significant up-regulation,,,
gamma-interferon: cytokine,,augments binding,100,1
TNF-alpha,significant up-regulation,,,
B1,significant up-regulation,,,
